Source: patent publication US5912330A, “Crystalline maltosyl glucoside, and its production and use” (Kabushiki Kaisha Hayashibara Seibutsu Kagaku Kenkyujo, priority 1994, dated 1999)
Values after ≈ are worked out from the molar mass of the structure shown.

Experiments:
[1] = Moisture adsorption / hygroscopicity of the products of the Examples; format: physicochemical
[2] = Solubility in water; format: physicochemical; conditions: 25° C. water
Procedure: (8) Solubility (as anhydride)
Up to about 163 g each hydrous and anhydrous crystals were respectively soluble in 100 ml of 25° C. water.

[3] = tested on: mice; test: Acute toxicity in mice upon oral administration; format: in vivo; conditions: for mortality: maximum administrable dose
Procedure: (§1) Hydrous and anhydrous crystalline maltosyl glucosides prepared by the method in Experiment B-1 were tested for acute toxicity in mice upon oral administration.

[4] = Hygroscopicity: water content and appearance at 90.1% relative humidity; format: physicochemical; conditions: for Hygroscopicity and appearance: in words
Procedure: About 1 g powder of hydrous crystalline maltosyl glucoside, anhydrous crystalline maltosyl glucoside or amorphous crystalline maltosyl glucoside was placed in a polyethylene vessel and allowed to stand in high humidity conditions of 90.1% relative humidity, and the changes of moisture content and appearance of these powders were observed and measured at a prescribed interval. Hydrous and anhydrous crystals, which were prepared by the methods of Experiment B-1, and amorphous crystal, which was prepared by dissolving hydrous crystal substance in deionized water and dried in vacuo to obtain a test sample.

[5] = Reducing power (DE) by Somogyi-Nelson method; format: physicochemical; conditions: dextrose equivalent
Source text: For purifying these newly formed saccharides, the reaction products were decolored, deionized, concentrated and subjected to column fractionation using a strongly-acidic cation exchanger in alkali-metal form ("XT-1016", Na^+ form, 4% cross-linking degree, a product of Tokyo Organic Chemical Industries, Ltd., Tokyo, Japan). More particularly, the cation exchanger was packed in 3 jacketed stainless steel columns, inner diameter of 2.0 cm, length of 1 m each, cascaded in series, which were then loaded with either reaction product in an amount of 5 v/v % to the volume of the cation exchanger and then applied with 55° C. water at an SV (space velocity) 0.13 for fractionation, and fractions containing 97% or more newly formed saccharides were collected. The obtained fractions were separately lyophilized into high-purity saccharide preparations. The yields against particular material substrates were about 9% for PI, about 65% for PII, about 82% for PIII, about 80% for PIV and about 77% for PV, and the final purities were 97.5% for PI, 98.6% for PII, 99.5% for PIII, 98.4% for PIV and 98.4% for PV.
These high-purity saccharide preparations were tested for their reducing powers with the Somogyi-Nelson method and their reducing powers were represented in terms of DE (dextrose equivalent).

[6] = Acute toxicity in mice upon oral administration; format: in vivo; conditions: mouse, in vivo
Procedure: as §1

DE [5]	SMILES	Water content ([4]; 0 hour) [%]	Water content ([4]; 2 hours) [%]	Water content ([4]; 8 hours) [%]	Water content ([4]; 24 hours) [%]	Hygroscopicity and appearance [4]	also measured
–	OC[C@H]1O[C@H](O[C@H]2O[C@H](CO)[C@@H](O[C@H]3O[C@H](CO)[C@@H](O)[C@H](O)[C@H]3O)[C@H](O)[C@H]2O)[C@H](O)[C@@H](O)[C@@H]1O [Example A-1]	–	–	–	–	–	hygroscopicity ([1]; in words, product of the Example): substantially no hygroscopicity
–	OC[C@H]1O[C@H](O[C@H]2O[C@H](CO)[C@@H](O[C@H]3O[C@H](CO)[C@@H](O)[C@H](O)[C@H]3O)[C@H](O)[C@H]2O)[C@H](O)[C@@H](O)[C@@H]1O [Anhydrous crystal, O-α-D-glucopyranosyl-(→4)-α-D-glucopyranosyl α-D-glucopyranoside]	0.3	10.3	10.4	10.5	hygroscopic, however, had no change of appearance and retained free-flowing ability	Solubility (as anhydride) [2]: about 163 g/100 ml; LD50 [3]: ≥ 50 g/kg; mortality [3]: no mouse died
0.23	OC[C@H]1O[C@H](O[C@H]2O[C@H](CO)[C@@H](O[C@H]3O[C@H](CO)[C@@H](O[C@H]4O[C@H](CO)[C@@H](O[C@H]5O[C@H](CO)[C@@H](O[C@H]6O[C@H](CO)[C@@H](O[C@H]7O[C@H](CO)[C@@H](O)[C@H](O)[C@H]7O)[C@H](O)[C@H]6O)[C@H](O)[C@H]5O)[C@H](O)[C@H]4O)[C@H](O)[C@H]3O)[C@H](O)[C@H]2O)[C@H](O)[C@@H](O)[C@@H]1O [PV, α-maltohexaosyl glucoside]	–	–	–	–	–	–
–	OC[C@H]1O[C@H](O[C@H]2O[C@H](CO)[C@@H](O[C@H]3O[C@H](CO)[C@@H](O)[C@H](O)[C@H]3O)[C@H](O)[C@H]2O)[C@H](O)[C@@H](O)[C@@H]1O [Hydrous crystal, O-α-D-glucopyranosyl-(→4)-α-D-glucopyranosyl α-D-glucopyranoside]	9.9	10.4	10.5	10.5	less hygroscopic, free flowing, and readily handleable	solubility ([2]; read-out: Solubility (as anhydride)): ~1630 mg/mL (≈ 3230 mM); mortality [3]: no mouse died; LD50 [6]: ≥ 50000 mg/kg
–	OC[C@H]1O[C@H](O[C@H]2O[C@H](CO)[C@@H](O[C@H]3O[C@H](CO)[C@@H](O)[C@H](O)[C@H]3O)[C@H](O)[C@H]2O)[C@H](O)[C@@H](O)[C@@H]1O [Example A-5]	–	–	–	–	–	water content after standing in a room ([1]; anhydrous crystal converted into hydrous crystal): about 10%
0.35	OC[C@H]1O[C@H](O[C@H]2O[C@H](CO)[C@@H](O[C@H]3O[C@H](CO)[C@@H](O[C@H]4O[C@H](CO)[C@@H](O)[C@H](O)[C@H]4O)[C@H](O)[C@H]3O)[C@H](O)[C@H]2O)[C@H](O)[C@@H](O)[C@@H]1O [PII, α-maltotriosyl glucoside]	–	–	–	–	–	–
–	OC[C@H]1O[C@H](O[C@H]2O[C@H](CO)[C@@H](O[C@H]3O[C@H](CO)[C@@H](O)[C@H](O)[C@H]3O)[C@H](O)[C@H]2O)[C@H](O)[C@@H](O)[C@@H]1O [Amorphous crystal, O-α-D-glucopyranosyl-(→4)-α-D-glucopyranosyl α-D-glucopyranoside]	0.5	6.3	17.4	20.0	very hygroscopic, readily solidified, and free flowing	–
0.27	OC[C@H]1O[C@H](O[C@H]2O[C@H](CO)[C@@H](O[C@H]3O[C@H](CO)[C@@H](O[C@H]4O[C@H](CO)[C@@H](O[C@H]5O[C@H](CO)[C@@H](O[C@H]6O[C@H](CO)[C@@H](O)[C@H](O)[C@H]6O)[C@H](O)[C@H]5O)[C@H](O)[C@H]4O)[C@H](O)[C@H]3O)[C@H](O)[C@H]2O)[C@H](O)[C@@H](O)[C@@H]1O [PIV, α-maltopentaosyl glucoside]	–	–	–	–	–	–
0.10	OC[C@H]1O[C@H](O[C@H]2O[C@H](CO)[C@@H](O[C@H]3O[C@H](CO)[C@@H](O[C@H]4O[C@H](CO)[C@@H](O[C@H]5O[C@H](CO)[C@@H](O)[C@H](O)[C@H]5O)[C@H](O)[C@H]4O)[C@H](O)[C@H]3O)[C@H](O)[C@H]2O)[C@H](O)[C@@H](O)[C@@H]1O [PIII, α-maltotetraosyl glucoside]	–	–	–	–	–	–

SMILES	DE [5]	Water content ([4]; 0 hour) [%]	Water content ([4]; 2 hours) [%]	Water content ([4]; 8 hours) [%]	Water content ([4]; 24 hours) [%]	Hygroscopicity and appearance [4]	also measured
OC[C@H]1O[C@H](O[C@H]2O[C@H](CO)[C@@H](O[C@H]3O[C@H](CO)[C@@H](O)[C@H](O)[C@H]3O)[C@H](O)[C@H]2O)[C@H](O)[C@@H](O)[C@@H]1O [PI, α-maltosyl glucoside]	0.83	–	–	–	–	–	–
